We go through six compounds from patent publication US20250230193A1, “CYCLIC COMPOUND HAVING SELECTIVE KRAS INHIBITORY EFFECT ON HRAS AND NRAS” (CHUGAI SEIYAKU KABUSHIKI KAISHA, priority 2022, published 2025).

For experiment [1], the target named is GDP-bound NRAS wild-type protein (Homo sapiens, UniProt P01111). Nature of the experiment: Binding to NRAS by surface plasmon resonance (SPR), Single Cycle Kinetics. As to conditions: KD ratio NRAS/KRAS, SPR. For orientation: SPR reads the build-up and loss of mass on a sensor chip optically.
GDP-bound NRAS wild-type protein, sequence (P01111 whole entry): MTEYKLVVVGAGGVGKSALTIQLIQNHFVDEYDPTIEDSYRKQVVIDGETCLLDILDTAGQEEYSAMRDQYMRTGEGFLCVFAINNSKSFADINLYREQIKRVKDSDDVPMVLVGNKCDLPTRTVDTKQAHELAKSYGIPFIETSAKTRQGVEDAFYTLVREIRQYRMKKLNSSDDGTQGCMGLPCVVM
For experiment [2], the target named is GDP-bound HRAS wild-type protein (Homo sapiens, UniProt P01112). Nature of the experiment: Binding to HRAS by surface plasmon resonance (SPR), Single Cycle Kinetics. As to conditions: KD ratio HRAS/KRAS, SPR.
GDP-bound HRAS wild-type protein, sequence (P01112 whole entry): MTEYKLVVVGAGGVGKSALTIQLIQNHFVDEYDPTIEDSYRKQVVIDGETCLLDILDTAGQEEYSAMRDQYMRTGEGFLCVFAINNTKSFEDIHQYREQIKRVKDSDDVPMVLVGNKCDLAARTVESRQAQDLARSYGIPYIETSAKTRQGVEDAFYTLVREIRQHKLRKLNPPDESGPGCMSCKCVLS

*1 amine or outer side, *2 acyl side, *3 side chain or, on linkers, in order; H or OH if unused. Where a SMILES comes first, the peptide text is derived from it. Bridges are numbered along the chain shown (N, C = ends). [ ]: non-standard residue; d: D form. The star is where a group is joined. hPhe(3,5-F2-4-CF3) = N[C@@H](CCc1cc(F)c(C(F)(F)F)c(F)c1)C(=O)O; NPrPhe(4-CF3) = CCCN[C@@H](Cc1ccc(C(F)(F)F)cc1)C(=O)O; NMeGly(cPent) = CN[C@H](C(=O)O)C1CCCC1; X13 = CCC[C@](C)(N[*:1])C(=O)[*:2]; αMeI = CC[C@H](C)[C@](C)(N)C(=O)O; αMeF = C[C@](N)(Cc1ccccc1)C(=O)O; NMeD = CN[C@@H](CC(=O)O)C(=O)O; NMeL = CN[C@@H](CC(C)C)C(=O)O; αMeL = CC(C)C[C@](C)(N)C(=O)O; αMeV = CC(C)[C@](C)(N)C(=O)O; αMeS = C[C@](N)(CO)C(=O)O; Morpholide = C1CN(*)CCO1; Aze = O=C(O)[C@@H]1CCN1; Sar = CNCC(=O)O

For `CCCN1C(=O)CN(C)C(=O)[C@@H]2CCN2C(=O)[C@H]([C@@H](C)CC)NC(=O)[C@H](CC(C)C)N(C)C(=O)C[C@@H](C(=O)N2CCOCC2)N(C)C(=O)[C@H](C2CCCC2)N(C)C(=O)[C@](C)(C(C)C)NC(=O)[C@@H]2CCCN2C(=O)[C@H](CCc2cc(F)c(C(F)(F)F)c(F)c2)NC(=O)CN(C)C(=O)[C@@H]1Cc1ccc(C(F)(F)F)cc1` [PP0773] ([NMeL]I[Aze][Sar][NPrPhe(4-CF3)][Sar][hPhe(3,5-F2-4-CF3)]P[αMeV][NMeGly(cPent)][NMeD]-Morpholide; lactam N-11), the “NRAS/KRAS (ratio of KD value with respect to GDP-bound NRAS wild-type protein to KD value with respect to KRAS)” value in experiment [1] is “B (a compound having 3 or more and less than 10 is denoted as B)”. Moreover, the “HRAS/KRAS (ratio of KD value with respect to GDP-bound HRAS wild-type protein to KD value with respect to KRAS)” value in experiment [2] was “B (a compound having 3 or more and less than 10 is denoted as B)”.
Consider `CCCN1C(=O)CN(C)C(=O)[C@@H]2CCN2C(=O)[C@H]([C@@H](C)CC)NC(=O)[C@H](CC(C)C)N(C)C(=O)C[C@@H](C(=O)N2CCOCC2)N(C)C(=O)[C@H](C2CCCC2)N(C)C(=O)[C@](C)([C@@H](C)CC)NC(=O)[C@@H]2CCCN2C(=O)[C@H](CCc2cc(F)c(C(F)(F)F)c(F)c2)NC(=O)CN(C)C(=O)[C@@H]1Cc1ccc(C(F)(F)F)cc1` [PP0774] ([NMeL]I[Aze][Sar][NPrPhe(4-CF3)][Sar][hPhe(3,5-F2-4-CF3)]P[αMeI][NMeGly(cPent)][NMeD]-Morpholide; lactam N-11), for which the “NRAS/KRAS (ratio of KD value with respect to GDP-bound NRAS wild-type protein to KD value with respect to KRAS)” value in experiment [1] was “B (a compound having 3 or more and less than 10 is denoted as B)”. For the same compound, the “HRAS/KRAS (ratio of KD value with respect to GDP-bound HRAS wild-type protein to KD value with respect to KRAS)” value in experiment [2] was “B (a compound having 3 or more and less than 10 is denoted as B)”.
With `CCCN1C(=O)CN(C)C(=O)[C@@H]2CCN2C(=O)[C@H]([C@@H](C)CC)NC(=O)[C@H](CC(C)C)N(C)C(=O)C[C@@H](C(=O)N2CCOCC2)N(C)C(=O)[C@H](C2CCCC2)N(C)C(=O)[C@](C)(CCC)NC(=O)[C@@H]2CCCN2C(=O)[C@H](CCc2cc(F)c(C(F)(F)F)c(F)c2)NC(=O)CN(C)C(=O)[C@@H]1Cc1ccc(C(F)(F)F)cc1` [PP0775] ([NMeL]I[Aze][Sar][NPrPhe(4-CF3)][Sar][hPhe(3,5-F2-4-CF3)]P[X13][NMeGly(cPent)][NMeD]-Morpholide; lactam N-11), the “NRAS/KRAS (ratio of KD value with respect to GDP-bound NRAS wild-type protein to KD value with respect to KRAS)” value in experiment [1] is “B (a compound having 3 or more and less than 10 is denoted as B)”. Further, in experiment [2], the “HRAS/KRAS (ratio of KD value with respect to GDP-bound HRAS wild-type protein to KD value with respect to KRAS)” value is “B (a compound having 3 or more and less than 10 is denoted as B)”.
With `CCCN1C(=O)CN(C)C(=O)[C@@H]2CCN2C(=O)[C@H]([C@@H](C)CC)NC(=O)[C@H](CC(C)C)N(C)C(=O)C[C@@H](C(=O)N2CCOCC2)N(C)C(=O)[C@H](C2CCCC2)N(C)C(=O)[C@](C)(CC(C)C)NC(=O)[C@@H]2CCCN2C(=O)[C@H](CCc2cc(F)c(C(F)(F)F)c(F)c2)NC(=O)CN(C)C(=O)[C@@H]1Cc1ccc(C(F)(F)F)cc1` [PP0776] ([NMeL]I[Aze][Sar][NPrPhe(4-CF3)][Sar][hPhe(3,5-F2-4-CF3)]P[αMeL][NMeGly(cPent)][NMeD]-Morpholide; lactam N-11), the “NRAS/KRAS (ratio of KD value with respect to GDP-bound NRAS wild-type protein to KD value with respect to KRAS)” value in experiment [1] was “B (a compound having 3 or more and less than 10 is denoted as B)”. Further, in experiment [2], the “HRAS/KRAS (ratio of KD value with respect to GDP-bound HRAS wild-type protein to KD value with respect to KRAS)” value was “B (a compound having 3 or more and less than 10 is denoted as B)”.
Take `CCCN1C(=O)CN(C)C(=O)[C@@H]2CCN2C(=O)[C@H]([C@@H](C)CC)NC(=O)[C@H](CC(C)C)N(C)C(=O)C[C@@H](C(=O)N2CCOCC2)N(C)C(=O)[C@H](C2CCCC2)N(C)C(=O)[C@](C)(Cc2ccccc2)NC(=O)[C@@H]2CCCN2C(=O)[C@H](CCc2cc(F)c(C(F)(F)F)c(F)c2)NC(=O)CN(C)C(=O)[C@@H]1Cc1ccc(C(F)(F)F)cc1` [PP0778] ([NMeL]I[Aze][Sar][NPrPhe(4-CF3)][Sar][hPhe(3,5-F2-4-CF3)]P[αMeF][NMeGly(cPent)][NMeD]-Morpholide; lactam N-11): the “NRAS/KRAS (ratio of KD value with respect to GDP-bound NRAS wild-type protein to KD value with respect to KRAS)” value in experiment [1] is “B (a compound having 3 or more and less than 10 is denoted as B)”. In addition, the “HRAS/KRAS (ratio of KD value with respect to GDP-bound HRAS wild-type protein to KD value with respect to KRAS)” value in experiment [2] was “B (a compound having 3 or more and less than 10 is denoted as B)”.
As for `CCCN1C(=O)CN(C)C(=O)[C@@H]2CCN2C(=O)[C@H]([C@@H](C)CC)NC(=O)[C@H](CC(C)C)N(C)C(=O)C[C@@H](C(=O)N2CCOCC2)N(C)C(=O)[C@H](C2CCCC2)N(C)C(=O)[C@](C)(COC)NC(=O)[C@@H]2CCCN2C(=O)[C@H](CCc2cc(F)c(C(F)(F)F)c(F)c2)NC(=O)CN(C)C(=O)[C@@H]1Cc1ccc(C(F)(F)F)cc1` [PP0779] ([NMeL]I[Aze][Sar][NPrPhe(4-CF3)][Sar][hPhe(3,5-F2-4-CF3)]P[αMeS](Me)[NMeGly(cPent)][NMeD]-Morpholide; lactam N-11), the “NRAS/KRAS (ratio of KD value with respect to GDP-bound NRAS wild-type protein to KD value with respect to KRAS)” value in experiment [1] was “B (a compound having 3 or more and less than 10 is denoted as B)”. Besides, in experiment [2], the “HRAS/KRAS (ratio of KD value with respect to GDP-bound HRAS wild-type protein to KD value with respect to KRAS)” value was “B (a compound having 3 or more and less than 10 is denoted as B)”.
